Legend:
[1] = tested on: DU-145 prostate cancer cells; test: SRB-assay, reduction in total cellular biomass; assay type: cell-based, human; settings: 48 hours
Procedure: (§1) The reduction in cellular biomass was measured by SRB-assay. For this assay cells were seeded in 96 well culture dishes at densities between 3000 and 8000 cells per well. […] Cultures were fixed with cold TCA producing a final TCA concentration of 10%. After 1 hour of incubation at 4° C. the cells were washed five times with water and air dried. Fixed cells were stained for 30 minutes with 0,4% (wt/vol) Sulforhodamine B (SRB) dissolved in 1% acetic acid and washed four times with 1% acetic acid to remove unbound dye. After air drying bound dye was solubilized with 10 mM unbuffered Tris base (pH 10,5) for 5 minutes. Optical densities were read on a Titertek Multiskan Plus spectrophotometric plate reader at 550 nm. Six test wells for each dose-response were set in parallel with 12 growth control wells per cell line. A measure of the cell population density at time 0 (To; the time at which the drug was added) was also made from 12 extra reference wells of cells fixed with TCA just prior to drug addition to the test plates. Background OD of complete medium with 5% FBS fixed and stained as described above was also determined in 12 separate wells. From the unprocessed OD data from each microtiter plate the background OD measurements (i.e. OD of complete medium plus stain and OD of cells at T0) were subtracted thus giving the reduction of cellular biomass of the cells.
(§2) The effect on the reduction in total cellular biomass was measured by SRB-assay (see example 1 for assay and read-out procedure details).
Results using MCF-7 estrogen-dependent breast cancer cells are presented in FIG. 18 and using DU-145 prostate cancer cells in FIG. 19. […] The effect on cell growth was measured by SRB-assay as described in example 1.

[2] = tested on: PC-3 prostate cancer cells; test: SRB-assay, reduction in total cellular biomass; assay type: cell-based, human; settings: 0.75 mM racemic 4-yn VPA in combination with Camptothecin, 48 hours
Procedure: as §1, with “From the unprocessed OD data from each microtiter plate the background OD measurements (i.e. OD of complete medium plus stain and OD of cells at T0) were subtracted thus giving the reduction of cellular biomass of the cells.” left out
as §2

[3] = tested on: HCT-15 colon cancer cells; test: SRB-assay, reduction in total cellular biomass; assay type: cell-based, human; settings: 5-FU alone at doses lower than 0.5 μM, 48 hours
Procedure: as §1
This was in particular obvious when lower concentrations of 5-FU were used. E.g. […] Thus, this combinatorial activity of these two drugs must be explained via a synergistic activity of this treatment.

[4] = tested on: HCT-116 colon cancer cells; test: cell counts and propidium iodide cell cycle/apoptosis analysis; assay type: cell-based, human
Procedure: For FIG. 14 cells were seeded in 6 well culture dishes at 100000 cells/well. The day after, they were treated with the indicated drugs (5-FU: 2 μM 5-Fluoruracile; AD: 20 ng/ml adriamycin; IT: 3 μM irinothecan), and then cultured for further 48 hours. Cells were counted at 24 h and 48 h after treatment. All of the assays have been performed in triplicate.
For FIG. 15 cells were seeded in 6 well culture dishes at 100000 cells/well. […] (A), results of triplicate counts of viable cells. (B), cells were stained with propidium iodide after permeabilization and fixation. Results of a cell cycle analysis are presented as percentage (%) of cells in G1, S, G2+M, and sub-G1 (apoptotic cells): all of the assays have been performed in triplicate.
(A), results of triplicate counts of viable cells. (B), cells were stained with propidium iodide after permeabilization and fixation. Results of a cell cycle analysis are presented as percentage (%) of apoptotic cells: all of the assays have been performed in triplicate.
For FIG. 17 cells were seeded in 10 cm culture dishes (1 million cells/dish). […] The day after, they were treated with the following drugs: 5-FU (panel A), AD (B), or IT (C), at the concentrations as indicated for FIG. 14. Cells were analyzed at the day of treatment, 24 h, and 48 h following treatment. Upper panels, results of triplicate counts of viable cells. Lower panels, cells were stained with propidium iodide after permeabilization and fixation. Results of a cell cycle analysis are presented as percentage (%) of apoptotic cells: all of the assays have been performed in triplicate.

[5] = tested on: primary AML blasts from AML patients; test: ex vivo differentiation, viability and apoptosis of leukemic blasts; assay type: cell-based, human
Procedure: Each point represents the mean of a set of data determined in triplicate (Example 15). VPA may cause synergistic therapeutic responses.
Cases were classified according to the French-American-British (FAB) classification (Bennett et al., Ann Intern Med 103, 1985). Cytogenetic analysis and RT-PCR tests were performed to rule out the presence of the APL associated fusion genes according to standard methods as described (Mandelli et al., Blood 90, 1997; Mancini et al., Br J Haematol. 91, 1995; Grimwade et al., Blood 90, 1999).

PPARδ = settings: cited from earlier work
F9 cells = settings: cited from earlier work
PML-RAR leukemia = settings: PML-RAR patient with multiple relapses after retinoic acid and chemotherapy; cited from earlier work
[6] = drug alone at the concentrations used (5-FU 2 μM; AD 20 ng/ml; IT 3 μM)

Question: With `C#CCC(CCC)C(=O)O` (racemic) [4-yn VPA, 2-n-Propyl-4-pentynoic acid] as the molecule, how does the “reduction of cellular biomass” value ([1]; 0.75 mM racemic 4-yn VPA in combination with cis Platinum lower than 10 μM) read?
Answer: synergistic reduction of cellular biomass

Question: What about the “reduction in cellular biomass” value [2] of the same molecule?
Answer: at least additive therapeutic effect

Question: For `O=c1[nH]cc(F)c(=O)[nH]1` [5-FU, 5-Fluorouracil], which cellular biomass [3] is on record?
Answer: increase of the cellular biomass

Question: What about the apoptosis [4, 6] of the same molecule?
Answer: did not induce apoptosis significantly

Question: What about the growth rate [4, 6] of the same molecule?
Answer: only moderately affected the growth rate

Question: And the apoptosis ([4]; high concentrations of 5-FU alone (not shown))?
Answer: efficiently induce apoptosis

Question: What about the apoptosis ([4]; lower doses of 5-FU alone) of the same molecule?
Answer: only a modest effect

Question: And the cell number ([4]; lower doses of 5-FU alone, due to reduction in cycling cells)?
Answer: reduction in cell number

Question: For `CC(/C=C/C(=O)NO)=C\[C@@H](C)C(=O)c1ccc(N(C)C)cc1` [TSA], which “synergistic activities in combination (FIGS. 21 and 25)” value ([5]; TSA +/- RA, compared to the extent VPA does) is on record?
Answer: does not display this synergistic activities

Question: What about the “apoptosis of AML blasts (FACS, propidium-iodide)” value ([5]; single agent, 4 cases tested) of the same molecule?
Answer: not TSA, was found effective in inducing apoptosis

Question: And the PPARδ activation (PPARδ)?
Answer: activates PPARδ

Question: What about the F9 cell differentiation (F9 cells) of the same molecule?
Answer: induces the same type of F9 cell differentiation as VPA

Question: Which results are given for `COc1cccc2c1C(=O)c1c(O)c3c(c(O)c1C2=O)C[C@@](O)(C(=O)CO)C[C@@H]3O[C@H]1C[C@H](N)[C@H](O)[C@H](C)O1` [adriamicine]?
Answer: apoptosis [4, 6]: did not induce apoptosis significantly; growth rate [4, 6]: only moderately affected the growth rate

Question: What does the source list for `N.N.[Cl][Pt][Cl]` [cisPlatinum]?
Answer: cellular biomass ([1]; cisPlatinum alone at concentrations lower than 10 μM): no decrease of the cellular biomass; cellular biomass ([1]; cisPlatinum alone at doses lower than 1 μM): no decrease of the cellular biomass

Question: For `CCc1c2c(nc3ccc(OC(=O)N4CCC(N5CCCCC5)CC4)cc13)-c1cc3c(c(=O)n1C2)COC(=O)[C@]3(O)CC` [irinothecan], which apoptosis [4, 6] is on record?
Answer: did not induce apoptosis significantly

Question: What about the growth rate [4, 6] of the same molecule?
Answer: only moderately affected the growth rate

Question: Which clinical response (PML-RAR leukemia) does the source give for phenylbutyrate here?
Answer: complete remission of the leukemia
